# Test results: patent US11214563B2 (JANSSEN PHARMACEUTICA NV, priority 2019, dated 2022)
# Molecular target: human GluN1/GluN2B NMDA receptors (Homo sapiens (Human), UniProt Q13224)
# Assay: Cell-based calcium flux (FLIPR) assay on cloned human NR1/NR2B ion channels expressed in mammalian cells
# Details: standard assay, glutamate ~EC40, 10 μM glycine
# Description: Effects of Test Articles on Cloned Human NR1/NR2B Ion Channels Expressed in Mammalian Cells
# NMDA receptors are ion channels that are highly permeable to Ca^2+ ions, rendering it possible to monitor NMDA receptor function using cell-based calcium flux assay. In this assay, co-agonists glutamate and glycine are added to cells heterologously expressing human GluN1/GluN2B NMDA receptors to initiate cellular Ca^2+ influx. The time course of the changes in intracellular calcium is measured using a fluorescent dye and a FLIPR (Fluorometric Imaging Plate Reader) device.
# Twenty four hours before measurements, the expression of the NMDA receptors in the stable cell line is induced with Tet-On inducible system in the presence of a non-selective NMDA receptor blocker. On the day of the experiment, cell culture media is carefully washed and the cells are loaded with Calcium 5 Dye Kit (Molecular Devices) in dye loading buffer containing 137 mM NaCl, 4 mM KCl, 2 mM CaCl2), 0.5 mM MgCl2(standard assay) or 1.5 mM MgCl2 (HTS assay), 10 mM HEPES and 5 mM D-glucose; pH 7.4. After 1 h incubation at the room temperature, the dye is washed away with the assay buffer (137 mM NaCl (standard assay) or 150 mM (HTS assay), 4 mM KCl (standard assay) or 3 mM (HTS assay), 2 mM CaCl2), 0.01 mM EDTA, 10 mM HEPES and 5 mM D-glucose; pH 7.4) In the FLIPR TETRA reader, various concentrations of the test compounds are added to the cells for 5 min while fluorescence is monitored to detect potential agonist activity. Next, co-agonists, glutamate and glycine are added for another 5 minutes. The concentration of glutamate corresponding to ˜EC40 (standard assay) or EC40 (HTS assay) is used to maximize the assay's signal window and ability to detect NMDA receptor antagonists and negative allosteric modulators. A saturating concentration (10 μM) of glycine is also present in the assay. A non-selective NMDA receptor antagonist, (+)MK-801 is used as a positive control for antagonist activity. The fluorescent signal in the presence of test compounds is quantified and normalized to the signal defined by the appropriate control wells.
# Sequence of human GluN1/GluN2B NMDA receptors (Q13224 27-1484, other chains not shown): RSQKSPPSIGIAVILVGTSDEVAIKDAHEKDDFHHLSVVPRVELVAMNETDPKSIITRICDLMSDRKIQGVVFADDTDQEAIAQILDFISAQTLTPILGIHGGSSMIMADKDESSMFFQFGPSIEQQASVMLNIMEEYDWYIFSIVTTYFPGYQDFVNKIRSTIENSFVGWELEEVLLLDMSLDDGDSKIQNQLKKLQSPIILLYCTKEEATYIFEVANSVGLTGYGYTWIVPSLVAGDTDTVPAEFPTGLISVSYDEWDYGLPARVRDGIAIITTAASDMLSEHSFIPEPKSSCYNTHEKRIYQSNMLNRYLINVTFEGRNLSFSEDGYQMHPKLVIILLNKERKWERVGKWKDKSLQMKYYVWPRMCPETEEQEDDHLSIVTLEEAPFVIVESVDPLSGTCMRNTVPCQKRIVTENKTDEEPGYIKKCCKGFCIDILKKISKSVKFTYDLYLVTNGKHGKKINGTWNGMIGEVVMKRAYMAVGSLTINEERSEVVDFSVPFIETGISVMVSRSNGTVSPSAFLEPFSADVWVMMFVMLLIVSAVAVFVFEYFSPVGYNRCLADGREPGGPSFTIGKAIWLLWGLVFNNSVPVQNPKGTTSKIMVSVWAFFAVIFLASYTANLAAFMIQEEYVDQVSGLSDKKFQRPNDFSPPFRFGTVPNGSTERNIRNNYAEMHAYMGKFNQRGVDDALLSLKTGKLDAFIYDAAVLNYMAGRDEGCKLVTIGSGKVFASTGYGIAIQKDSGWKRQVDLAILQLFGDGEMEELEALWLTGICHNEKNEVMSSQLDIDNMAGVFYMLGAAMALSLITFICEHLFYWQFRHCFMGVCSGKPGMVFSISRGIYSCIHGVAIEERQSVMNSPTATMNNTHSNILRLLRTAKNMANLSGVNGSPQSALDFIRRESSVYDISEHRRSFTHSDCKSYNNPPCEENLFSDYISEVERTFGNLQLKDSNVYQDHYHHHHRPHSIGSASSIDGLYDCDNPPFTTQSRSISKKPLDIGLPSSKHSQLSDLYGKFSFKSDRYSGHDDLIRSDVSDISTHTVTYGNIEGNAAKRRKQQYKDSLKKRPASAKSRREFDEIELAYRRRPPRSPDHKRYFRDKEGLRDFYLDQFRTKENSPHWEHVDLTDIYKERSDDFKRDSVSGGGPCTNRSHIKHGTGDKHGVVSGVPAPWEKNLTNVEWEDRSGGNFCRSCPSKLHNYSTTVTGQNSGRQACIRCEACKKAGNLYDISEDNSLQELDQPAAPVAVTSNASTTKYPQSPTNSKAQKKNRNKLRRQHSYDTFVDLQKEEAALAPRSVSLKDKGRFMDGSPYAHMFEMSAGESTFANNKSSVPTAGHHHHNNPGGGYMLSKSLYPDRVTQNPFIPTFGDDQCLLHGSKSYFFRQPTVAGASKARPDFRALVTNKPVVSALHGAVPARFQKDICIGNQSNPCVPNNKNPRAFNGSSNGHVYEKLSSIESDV
row,Compound,IC50
1,"N#Cc1cncc(Cn2nc(F)c3ncc(-c4ccc(F)c(C(F)F)c4)nc32)c1 [Example 46, 5-[[6-[3-(Difluoromethyl)-4-fluoro-phenyl]-3-fluoro-pyrazolo[3,4-b]pyrazin-1-yl]methyl]pyridine-3-carbonitrile]",709 nM
2,"Fc1ccc(-c2cnc3cnn(Cc4cncc(Cl)c4)c3n2)cc1C(F)F [Example 43, 1-[(5-Chloro-3-pyridyl)methyl]-6-[3-(difluoromethyl)-4-fluoro-phenyl]pyrazolo[3,4-b]pyrazine]",250 nM
3,"Cc1cc(Cn2ncc3ncc(-c4ccc(F)c(C(F)F)c4)nc32)on1 [Example 41, 5-[[6-[3-(Difluoromethyl)-4-fluoro-phenyl]pyrazolo[3,4-b]pyrazin-1-yl]methyl]-3-methyl-isoxazole]",337 nM
4,"CC1CN(C(=O)Cn2ncc3ncc(-c4ccc(F)c(OC(F)F)c4)nc32)C1 [Example 36, 2-[6-[3-(Difluoromethoxy)-4-fluoro-phenyl]pyrazolo[3,4-b]pyrazin-1-yl]-1-(3-methylazetidin-1-yl)ethanone]",251 nM
5,"COc1cncc(Cn2ncc3ncc(-c4ccc(F)c(C(F)F)c4)nc32)c1 [Example 44, 6-[3-(Difluoromethyl)-4-fluoro-phenyl]-1-[(5-methoxy-3-pyridyl)methyl]pyrazolo[3,4-b]pyrazine]",165 nM
6,"COc1cncc(Cn2ncc3ncc(-c4ccc(F)c(OC(F)F)c4)nc32)c1 [Example 52, 6-(3-(Difluoromethoxy)-4-fluorophenyl)-1-((5-methoxypyridin-3-yl)methyl)-1H-pyrazolo[3,4-b]pyrazine]",3770 nM
7,"Fc1cncc(Cn2ncc3ncc(-c4ccc(F)c(C(F)F)c4)nc32)c1 [Example 42, 6-[3-(Difluoromethyl)-4-fluoro-phenyl]-1-[(5-fluoro-3-pyridyl)methyl]pyrazolo[3,4-b]pyrazine]",79 nM
8,"Cc1nnc(Cn2ncc3ncc(-c4ccc(F)c(C(F)F)c4)nc32)s1 [Example 39, 2-[[6-[3-(Difluoromethyl)-4-fluoro-phenyl]pyrazolo[3,4-b]pyrazin-1-yl]methyl]-5-methyl-1,3,4-thiadiazole]",162 nM
9,"CC1CN(C(=O)Cn2nc(F)c3ncc(-c4ccc(F)c(C(F)F)c4)nc32)C1 [Example 31, 2-[6-[3-(Difluoromethyl)-4-fluoro-phenyl]-3-fluoro-pyrazolo[3,4-b]pyrazin-1-yl]-1-(3-methylazetidin-1-yl)ethanone]",196 nM
10,"O=C(Cn1ncc2ncc(-c3ccc(Cl)c(OC(F)F)c3)nc21)N1CCC1 [Example 29, 1-(Azetidin-1-yl)-2-[6-[4-chloro-3-(difluoromethoxy)phenyl]pyrazolo[3,4-b]pyrazin-1-yl]ethanone]",69 nM
11,"CN(C)C(=O)Cn1ncc2ncc(-c3ccc(OC(F)(F)F)cc3)nc21 [Example 49, N,N-Dimethyl-2-(6-(4-(trifluoromethoxy)phenyl)-1H-pyrazolo[3,4-b]pyrazin-1-yl)acetamide]",2740 nM
12,"Fc1ccc(-c2cnc3cnn(Cc4cncc(Cl)c4)c3n2)cc1OC(F)F [Example 47, 1-[(5-Chloro-3-pyridyl)methyl]-6-[3-(difluoromethoxy)-4-fluoro-phenyl]pyrazolo[3,4-b]pyrazine]",284 nM
13,"CN(C)C(=O)Cn1ncc2ncc(-c3ccc(Cl)c(C(F)(F)F)c3)nc21 [Example 15, 2-[6-[4-Chloro-3-(trifluoromethyl)phenyl]pyrazolo[3,4-b]pyrazin-1-yl]-N,N-dimethyl-acetamide]",272 nM
14,"CC1CN(C(=O)Cn2ncc3ncc(-c4ccc(Cl)c(C(C)(F)F)c4)nc32)C1 [Example 34, 2-[6-[4-Chloro-3-(1,1-difluoroethyl)phenyl]pyrazolo[3,4-b]pyrazin-1-yl]-1-(3-methylazetidin-1-yl)ethanone]",408 nM
15,"CN(C)C(=O)Cn1ncc2ncc(-c3ccc(Cl)c(C(C)(F)F)c3)nc21 [Example 14, 2-[6-[4-Chloro-3-(1,1-difluoroethyl)phenyl]pyrazolo[3,4-b]pyrazin-1-yl]-N,N-dimethyl-acetamide]",149 nM
16,Cc1cc(-c2cnc3cnn(CC(=O)N(C)C)c3n2)ccc1Cl [Example 7],117 nM
17,"CC(F)(F)c1cc(-c2cnc3cnn(CC(=O)N4CCC4)c3n2)ccc1Cl [Example 26, 1-(Azetidin-1-yl)-2-[6-[4-chloro-3-(1,1-difluoroethyl)phenyl]pyrazolo[3,4-b]pyrazin-1-yl]ethanone]",140 nM
18,"CN(C)C(=O)Cn1ncc2ncc(-c3ccc(F)c(C(C)(F)F)c3)nc21 [Example 13, 2-[6-[3-(1,1-Difluoroethyl)-4-fluoro-phenyl]pyrazolo[3,4-b]pyrazin-1-yl]-N,N-dimethyl-acetamide]",146 nM
19,"O=C(Cn1nc(F)c2ncc(-c3ccc(F)c(C(F)F)c3)nc21)N1CC(F)C1 [Example 33, 2-[6-[3-(Difluoromethyl)-4-fluoro-phenyl]-3-fluoro-pyrazolo[3,4-b]pyrazin-1-yl]-1-(3-fluoroazetidin-1-yl)ethanone]",77 nM
20,"CC(F)(F)c1cc(-c2cnc3cnn(CC(=O)N4CC(F)C4)c3n2)ccc1Cl [Example 35, 2-[6-[4-Chloro-3-(1,1-difluoroethyl)phenyl]pyrazolo[3,4-b]pyrazin-1-yl]-1-(3-fluoroazetidin-1-yl)ethanone]",212 nM
21,Cc1cc(-c2cnc3cnn(CC(=O)N(C)C)c3n2)ccc1Cl [Example 8],134 nM
22,"CN(C)C(=O)Cn1ncc2ncc(-c3ccc(OC(F)F)c(F)c3)nc21 [Example 17, 2-[6-[4-(Difluoromethoxy)-3-fluoro-phenyl]pyrazolo[3,4-b]pyrazin-1-yl]-N,N-dimethyl-acetamide]",859 nM
23,"CN(C)C(=O)Cn1ncc2ncc(-c3ccc(Cl)cc3F)nc21 [Example 48, 2-(6-(4-Chloro-2-fluorophenyl)-1H-pyrazolo[3,4-b]pyrazin-1-yl)-N,N-dimethylacetamide]",2810 nM
24,"Cc1c(F)ccc(-c2cnc3cnn(CC(=O)N(C)C)c3n2)c1F [Example 21, 2-[6-(2,4-Difluoro-3-methyl-phenyl)pyrazolo[3,4-b]pyrazin-1-yl]-N,N-dimethyl-acetamide]",34 nM
25,"CN(C)C(=O)Cn1ncc2ncc(-c3ccc(OC(F)(F)F)c(Cl)c3)nc21 [Example 19, 2-[6-[3-Chloro-4-(trifluoromethoxy)phenyl]pyrazolo[3,4-b]pyrazin-1-yl]-N,N-dimethyl-acetamide]",1040 nM
26,"CN(C)C(=O)Cn1ncc2ncc(-c3cc(F)ccc3F)nc21 [Example 50, 2-(6-(2,5-Difluorophenyl)-1H-pyrazolo[3,4-b]pyrazin-1-yl)-N,N-dimethylacetamide]",> 3000 nM
27,"CC(F)(F)c1cc(-c2cnc3cnn(CC(=O)N4CCOCC4)c3n2)ccc1Cl [Example 38, 2-[6-[4-Chloro-3-(1,1-difluoroethyl)phenyl]pyrazolo[3,4-b]pyrazin-1-yl]-1-morpholino-ethanone]",1060 nM
28,"CN(C)C(=O)Cn1ncc2ncc(-c3ccc(F)c(F)c3F)nc21 [Example 23, N,N-Dimethyl-2-[6-(2,3,4-trifluorophenyl)pyrazolo[3,4-b]pyrazin-1-yl]acetamide]",962 nM
29,"COc1ccc(-c2cnc3cnn(CC(=O)N(C)C)c3n2)cc1Cl [Example 9, 2-[6-(3-Chloro-4-methoxy-phenyl)pyrazolo[3,4-b]pyrazin-1-yl]-N,N-dimethyl-acetamide]",584 nM
